Like-named read-outs stand apart in the source and are kept apart here.
Tests used:
FGFR2 (N549H) = target: T1, FGFR2 (N549H) (Homo sapiens, UniProt P21802, N549H); assay: fluorescent ELISA assay for inhibitors of FGFR2 kinase; type: biochemical; details: Pyk2 peptide substrate, 60 minutes
T1 construct: purchased Millipore 14-742
Protocol: The enzymatic assays described herein are conducted according to the following procedures from commercially available reagents. In one non-limiting example, a fluorescent ELISA assay is used to identify and characterize inhibitors of FGFR2 kinase as described herein. This heterogeneous assay utilizes a biotinylated peptide with a tyrosine motif as a substrate and an anti-phospho-tyrosine antibody to measure phosphorylation of the substrate. The reaction is initiated by adding the test compound, 37 μM Pyk2 substrate (Midwest Biotech, Cat. #MBT2383), 12.5 μM ATP (Roche, Cat. #11 140 965 001) and 0.5 μM FGFR2 enzyme (Millipore, Cat. #14-742) sequentially to a non-binding polypropylene V-well plate. All reagents are in an assay buffer consisting of: 50 mM Tris-HCL, 0.02 mg/ml BSA, 10 mM MgCl2, 0.1 mM Na3VO4, 1 mM EGTA, 75 μM ATP, 0.01% NP-40, 2 mM DTT and 10% glycerol. The reaction is incubated for 60 minutes. As the reaction proceeds, FGFR2 phosphorylates tyrosines in the peptide. The reaction mixture is then moved to a blocked streptavidin-coated Nunc Maxisorb plate (coated with 100 ng streptavidin from Pierce (Cat. #15-124) per well), allowing for the capture of the biotinylated peptide. Peptides are captured for 30 minutes at room temperature, the phosphorylation of peptides continues during this phase. The reaction is stopped by washing the streptavidin-coated plate 6 times with TBST. Phosphorylated peptide is detected by adding anti-phospho-tyrosine antibody (Cell Signaling, Cat. #9411, diluted 1:3000) to the streptavidin-coated plate. Unbound anti-phospho-tyrosine antibody is removed by washing the streptavidin-coated plate 6 times with TBST. Secondary detection is performed using alkaline phosphatase tagged goat anti-mouse antibody (Pierce, Cat. #31320, diluted 1:4000) for one hour. Unbound secondary antibody is removed by washing the streptavidin-coated plate 6 times with TBST. The fluorescent readout is initiated by adding to the streptavidin-coated plate Promega Attophos substrate (Promega, Cat. #S1000, dilution=6 mg/10 ml), which, when dephosphorylated by alkaline phosphatase, emits a fluorescent signal of 595 nm in wavelength when excited by a signal of 400 nm in wavelength. The reading of the 595 nm signal is done on the Perkin Elmer Envision system. Compounds which prevent FGFR2 from phosphorylating the peptide result in a lower fluorescent signal. The 595 nm fluorescent signal is directly proportional to the activity of FGFR2. Thus, the inhibition of FGFR2 by compounds is monitored by the decrease in the 595 nm fluorescent signal.

cancer cells = assay: MTS cell growth inhibition assay (72 hours); type: cell-based
In short: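 Cells in DMEM with 1% FBS, seeded 18 h, then compound-treated 72 h at 37 °C. Viability by MTS/PMS for 4 h, formazan absorbance at 492 nm; IC50 taken as concentration giving 50% absorbance drop, activity banded by percent inhibition.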

[1] = Homo sapiens, DLD-1, 72 h, DLD-1 cells, read-out: DLD-1 MTS 72 hr at 10 μM
[2] = Homo sapiens, KATO III, 72 h, KATO III cells, read-out: KATO III MTS 72 hr at 10 μM
[3] = Homo sapiens, MDA-MB-231, 72 h, MDA-MB-231 cells, read-out: MDA-MB-231 MTS 72 hr at 10 μM
[4] = Homo sapiens, NCI-H1299, 72 h, NCI-H1299 cells, read-out: NCI-H1299 MTS 72 hr at 10 μM
[5] = PaCa-2, 72 h, PACA-2 cells, read-out: PACA-2 MTS 72 hr at 10 μM

T1 sequence (P21802 22-821 N549H): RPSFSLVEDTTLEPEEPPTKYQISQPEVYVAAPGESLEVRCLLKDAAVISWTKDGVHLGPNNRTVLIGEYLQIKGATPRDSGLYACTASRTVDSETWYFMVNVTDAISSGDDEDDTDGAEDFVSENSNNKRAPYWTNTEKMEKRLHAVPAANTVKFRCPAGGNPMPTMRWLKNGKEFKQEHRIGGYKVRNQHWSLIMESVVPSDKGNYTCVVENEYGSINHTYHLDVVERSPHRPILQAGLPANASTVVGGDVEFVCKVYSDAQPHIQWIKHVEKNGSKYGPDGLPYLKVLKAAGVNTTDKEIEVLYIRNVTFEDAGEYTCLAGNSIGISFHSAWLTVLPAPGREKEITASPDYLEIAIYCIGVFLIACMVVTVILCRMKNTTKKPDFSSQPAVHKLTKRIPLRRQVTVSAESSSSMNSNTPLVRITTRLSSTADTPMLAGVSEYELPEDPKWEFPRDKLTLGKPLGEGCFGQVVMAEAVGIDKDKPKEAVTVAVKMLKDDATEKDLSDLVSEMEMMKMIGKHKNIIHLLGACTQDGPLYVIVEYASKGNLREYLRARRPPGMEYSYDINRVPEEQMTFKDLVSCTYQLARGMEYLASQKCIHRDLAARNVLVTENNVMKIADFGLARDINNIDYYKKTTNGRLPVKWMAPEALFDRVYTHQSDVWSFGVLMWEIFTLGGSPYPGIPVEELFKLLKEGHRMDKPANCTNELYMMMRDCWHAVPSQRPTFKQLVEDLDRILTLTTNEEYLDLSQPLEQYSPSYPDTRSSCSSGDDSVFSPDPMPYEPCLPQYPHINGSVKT

| SMILES | IC50 (FGFR2 (N549H)) [nM] | inhibition at 10 µM (cancer cells; [1]) [%] | inhibition at 10 µM (cancer cells; [2]) [%] | inhibition at 10 µM (cancer cells; [3]) [%] | inhibition at 10 µM (cancer cells; [4]) [%] | inhibition at 10 µM (cancer cells; [5]) [%] |
| --- | --- | --- | --- | --- | --- | --- |
| Nc1nc(NC2Cc3ccccc3N(S(=O)(=O)c3cccc(C(F)(F)F)c3)C2)c2cn[nH]c2n1 (stereo not drawn) [Compound 19, N4-(1-(3-(trifluoromethyl)phenylsulfonyl)-1,2,3,4-tetrahydroquinolin-3-yl)-1H-pyrazolo[3,4-d]pyrimidine-4,6-diamine] | 1180 | < 50 | < 50 | < 50 | < 50 | < 50 |
| Nc1nc(NC2Cc3ccccc3N(S(=O)(=O)c3cccs3)C2)c2cn[nH]c2n1 (stereo not drawn) [Compound 23, N4-(1-(thiophen-2-ylsulfonyl)-1,2,3,4-tetrahydroquinolin-3-yl)-1H-pyrazolo[3,4-d]pyrimidine-4,6-diamine] | 2580 | < 50 | < 50 | < 50 | < 50 | < 50 |
| Nc1nc(NC2Cc3ccccc3N(S(=O)(=O)c3ccccc3)C2)c2cn[nH]c2n1 (stereo not drawn) [Compound 25, N4-(1-(phenylsulfonyl)-1,2,3,4-tetrahydroquinolin-3-yl)-1H-pyrazolo[3,4-d]pyrimidine-4,6-diamine] | 340 | < 50 | < 50 | < 50 | < 50 | < 50 |
| Nc1nc(NC2Cc3ccccc3N(S(=O)(=O)c3cccc(Cl)c3)C2)c2cn[nH]c2n1 (stereo not drawn) [Compound 26, N4-(1-(3-chlorophenylsulfonyl)-1,2,3,4-tetrahydroquinolin-3-yl)-1H-pyrazolo[3,4-d]pyrimidine-4,6-diamine] | 30 | > 79 | > 79 | 50 to 79 | < 50 | > 79 |
| Nc1nc(NC2Cc3ccccc3N(S(=O)(=O)c3cccc4cccnc34)C2)c2cn[nH]c2n1 (stereo not drawn) [Compound 28, N4-(1-(quinolin-8-ylsulfonyl)-1,2,3,4-tetrahydroquinolin-3-yl)-1H-pyrazolo[3,4-d]pyrimidine-4,6-diamine] | 21500 | < 50 | < 50 | < 50 | < 50 | < 50 |
| Nc1nc(NC2Cc3ccccc3N(S(=O)(=O)c3cccc4ccccc34)C2)c2cn[nH]c2n1 (stereo not drawn) [Compound 31, N4-(1-(naphthalen-1-ylsulfonyl)-1,2,3,4-tetrahydroquinolin-3-yl)-1H-pyrazolo[3,4-d]pyrimidine-4,6-diamine] | 3350 | < 50 | > 79 | < 50 | < 50 | < 50 |
| CC(C)(C)c1ccc(S(=O)(=O)N2CC(Nc3nc(N)nc4[nH]ncc34)Cc3ccccc32)cc1 (stereo not drawn) [Compound 33, N4-(1-(4-tert-butylphenylsulfonyl)-1,2,3,4-tetrahydroquinolin-3-yl)-1H-pyrazolo[3,4-d]pyrimidine-4,6-diamine] | > 30000 | 50 to 79 | 50 to 79 | 50 to 79 | < 50 | > 79 |
| Nc1nc(NC2Cc3ccccc3N(S(=O)(=O)c3ccc(Br)cc3)C2)c2cn[nH]c2n1 (stereo not drawn) [Compound 37, N4-(1-(4-bromophenylsulfonyl)-1,2,3,4-tetrahydroquinolin-3-yl)-1H-pyrazolo[3,4-d]pyrimidine-4,6-diamine] | 3600 | < 50 | < 50 | < 50 | < 50 | < 50 |
| Nc1nc(NC2Cc3ccccc3N(S(=O)(=O)c3ccc(Cl)c(Cl)c3)C2)c2cn[nH]c2n1 (stereo not drawn) [Compound 39, N4-(1-(3,4-dichlorophenylsulfonyl)-1,2,3,4-tetrahydroquinolin-3-yl)-1H-pyrazolo[3,4-d]pyrimidine-4,6-diamine] | 880 | < 50 | 50 to 79 | < 50 | < 50 | < 50 |
| CC(=O)Nc1ccc(S(=O)(=O)N2CC(Nc3nc(N)nc4[nH]ncc34)Cc3ccccc32)cc1 (stereo not drawn) [Compound 40, N-(4-(3-(6-amino-1H-pyrazolo[3,4-d]pyrimidin-4-ylamino)-3,4-dihydroquinolin-1(2H)-ylsulfonyl)phenyl)acetamide] | > 30000 | < 50 | < 50 | < 50 | < 50 | < 50 |
| COc1ccc(S(=O)(=O)N2CC(Nc3nc(N)nc4[nH]ncc34)Cc3ccccc32)cc1 (stereo not drawn) [Compound 42, N4-(1-(4-methoxyphenylsulfonyl)-1,2,3,4-tetrahydroquinolin-3-yl)-1H-pyrazolo[3,4-d]pyrimidine-4,6-diamine] | 15900 | < 50 | 50 to 79 | < 50 | < 50 | < 50 |
| Nc1nc(NC2Cc3ccccc3N(S(=O)(=O)c3ccc(F)c(Cl)c3)C2)c2cn[nH]c2n1 (stereo not drawn) [Compound 43, N4-(1-(3-chloro-4-fluorophenylsulfonyl)-1,2,3,4-tetrahydroquinolin-3-yl)-1H-pyrazolo[3,4-d]pyrimidine-4,6-diamine] | 270 | > 79 | > 79 | > 79 | > 79 | > 79 |
| Nc1nc(NC2Cc3ccccc3N(S(=O)(=O)c3ccccc3F)C2)c2cn[nH]c2n1 (stereo not drawn) [Compound 45, N4-(1-(2-fluorophenylsulfonyl)-1,2,3,4-tetrahydroquinolin-3-yl)-1H-pyrazolo[3,4-d]pyrimidine-4,6-diamine] | 380 | < 50 | < 50 | < 50 | < 50 | < 50 |
| Nc1nc(NC2Cc3ccccc3N(S(=O)(=O)c3ccc(F)cc3F)C2)c2cn[nH]c2n1 (stereo not drawn) [Compound 47, N4-(1-(2,4-difluorophenylsulfonyl)-1,2,3,4-tetrahydroquinolin-3-yl)-1H-pyrazolo[3,4-d]pyrimidine-4,6-diamine] | 390 | < 50 | < 50 | < 50 | < 50 | < 50 |
| CC(=O)c1ccc(S(=O)(=O)N2CC(Nc3nc(N)nc4[nH]ncc34)Cc3ccccc32)cc1 (stereo not drawn) [Compound 48, 1-(4-(3-(6-amino-1H-pyrazolo[3,4-d]pyrimidin-4-ylamino)-3,4-dihydroquinolin-1(2H)-ylsulfonyl)phenyl)ethanone] | 17200 | > 79 | 50 to 79 | > 79 | < 50 | > 79 |
| Cc1ccc(-c2ccc(S(=O)(=O)N3CC(Nc4nc(N)nc5[nH]ncc45)Cc4ccccc43)cc2)cc1 (stereo not drawn) [Compound 50, N4-(1-(4′-methylbiphenyl-4-ylsulfonyl)-1,2,3,4-tetrahydroquinolin-3-yl)-1H-pyrazolo[3,4-d]pyrimidine-4,6-diamine] | > 30000 | 50 to 79 | 50 to 79 | < 50 | < 50 | 50 to 79 |
| Nc1nc(NC2Cc3ccccc3N(S(=O)(=O)c3csc4ccccc34)C2)c2cn[nH]c2n1 (stereo not drawn) [Compound 51, N4-(1-(benzo[b]thiophen-3-ylsulfonyl)-1,2,3,4-tetrahydroquinolin-3-yl)-1H-pyrazolo[3,4-d]pyrimidine-4,6-diamine] | 3850 | < 50 | 50 to 79 | < 50 | < 50 | 50 to 79 |

Source: patent US8273754B2, “Substituted 1H-pyrazolo[3,4-D]pyrimidine-6-amine compounds” (ArQule, Inc., priority 2008, dated 2012)
